This is an account of results in US8367340B2, “Prognostic tools to predict the efficacy of drug treatment targeting chromatin DNA or enzymes acting on DNA” (University of Maryland, Baltimore, priority 2008, dated 2013).

For this assay, the system named is c-myc P2 promoter. Kind of assay: PCR-Stop assay with real time PCR on genomic DNA of drug-treated RKO colon cancer cells. The format is cell-based, human. The following applies: 10 ng/ml TSA 4 h followed by 25 μM VP16 1 h, compared to the reverse combination and the single drug treatments. The source says:
Top2 inhibitors induce preferential damage within the c-myc locus and more particularly within the P2 promoter of c-myc. […] By way of non-limiting example, the 3′ end region may be amplified using the following primers of the human c-myc gene: Forward: 5′[…]3′ [SEQ ID NO: 1], Reverse: 5′[…]3′ [SEQ ID NO:2]. Other suitable primers may be used, as would be apparent to those skilled in the art.
According to example embodiments, a comparative threshold (Ct) method may be used to quantify the results obtained by the real-time RT-PCR. The comparative Ct method involves comparing the Ct values of the samples of interest with a control or calibrator such as a non-treated sample from normal tissue. The Ct values of both the calibrator and the samples of interest are normalized to an appropriate endogenous housekeeping gene. Non-limiting example quantification methods include identifying the cycle number at which the reporter dye emission intensities rises above background noise: this cycle number is called the threshold number (Ct). The Ct is proportional to the breaks introduced in the target template; the higher the amount of breakage in the given target template, the higher the Ct measured.
By way of non-limiting example, the 3′ region of c-myc gene that has no type II topoisomerase cleavage site may be used as a reference. […]
In general terms: Real-time PCR tracks product formation cycle by cycle.

The structures appear in SMILES notation.

In the case of `COc1cc([C@@H]2c3cc4c(cc3[C@@H](O[C@@H]3O[C@@H]5CO[C@@H](C)O[C@H]5[C@H](O)[C@H]3O)[C@H]3COC(=O)[C@H]23)OCO4)cc(OC)c1O` [VP16, etoposide], the “percentage of breaks at c-myc locus (type II topoisomerase mediated DNA breaks in c-myc P2 promoter)” value is reported as “considerably higher percentage of breaks”.
